# Source: ChEMBL document CHEMBL4007388, “Synthesis and antiproliferative activity of monocationic arylthiophene derivatives” (Eur J Med Chem, 2017)
# Tests used:
# [1] = Antioxidant activity assessed as superoxide dismutase-like activity by measuring inhibition of superoxide radical anion production at 2 uM by NBT reduction assay relative to control; type: functional
# [2] = tested on: Escherichia coli; assay: Induction of Escherichia coli genomic DNA cleavage after 1 hr by agarose gel electrophoresis method
# [3] = tested on: CCRF-CEM; assay: Growth inhibition of human CCRF-CEM cells incubated for 48 hrs by sulforhodamine B assay; type: functional
# [4] = tested on: RPMI-8226; assay: Growth inhibition of human RPMI8226 cells incubated for 48 hrs by sulforhodamine B assay; type: functional; conditions: RPMI-8226, 48 h
# [5] = tested on: A549; assay: Growth inhibition of human A549/ATCC cells incubated for 48 hrs by sulforhodamine B assay; type: functional; conditions: A549, 48 h
# [6] = tested on: HOP-92; assay: Growth inhibition of human HOP92 cells incubated for 48 hrs by sulforhodamine B assay; type: functional; conditions: HOP-92, 48 h
# [7] = tested on: NCI-H226; assay: Growth inhibition of human NCI-H226 cells incubated for 48 hrs by sulforhodamine B assay; type: functional; conditions: NCI-H226, 48 h
# [8] = tested on: NCI-H23; assay: Growth inhibition of human NCI-H23 cells incubated for 48 hrs by sulforhodamine B assay; type: functional; conditions: NCI-H23, 48 h
# [9] = tested on: NCI-H322M; assay: Growth inhibition of human NCI-H322M cells incubated for 48 hrs by sulforhodamine B assay; type: functional
# [10] = tested on: NCI-H460; assay: Growth inhibition of human NCI-H460 cells incubated for 48 hrs by sulforhodamine B assay; type: functional; conditions: NCI-H460, 48 h
# [11] = tested on: NCI-H522; assay: Growth inhibition of human NCI-H522 cells incubated for 48 hrs by sulforhodamine B assay; type: functional; conditions: NCI-H522, 48 h
# [12] = tested on: COLO 205; assay: Growth inhibition of human COLO205 cells incubated for 48 hrs by sulforhodamine B assay; type: functional; conditions: COLO 205, 48 h
# [13] = tested on: HCC 2998; assay: Growth inhibition of human HCC2998 cells incubated for 48 hrs by sulforhodamine B assay; type: functional; conditions: HCC 2998, 48 h
# [14] = tested on: HCT-116; assay: Growth inhibition of human HCT116 cells incubated for 48 hrs by sulforhodamine B assay; type: functional; conditions: HCT-116, 48 h
# [15] = tested on: HCT-15; assay: Growth inhibition of human HCT15 cells incubated for 48 hrs by sulforhodamine B assay; type: functional; conditions: HCT-15, 48 h
# [16] = tested on: HT-29; assay: Growth inhibition of human HT-29 cells incubated for 48 hrs by sulforhodamine B assay; type: functional; conditions: HT-29, 48 h
# [17] = tested on: KM12; assay: Growth inhibition of human KM12 cells incubated for 48 hrs by sulforhodamine B assay; type: functional; conditions: KM12, 48 h
# [18] = tested on: SW-620; assay: Growth inhibition of human SW620 cells incubated for 48 hrs by sulforhodamine B assay; type: functional; conditions: SW-620, 48 h
# [19] = tested on: SF-268; assay: Growth inhibition of human SF268 cells incubated for 48 hrs by sulforhodamine B assay; type: functional; conditions: SF-268, 48 h
# [20] = tested on: SF-295; assay: Growth inhibition of human SF295 cells incubated for 48 hrs by sulforhodamine B assay; type: functional; conditions: SF-295, 48 h
# [21] = tested on: SF-539; assay: Growth inhibition of human SF539 cells incubated for 48 hrs by sulforhodamine B assay; type: functional; conditions: SF-539, 48 h
# [22] = tested on: SNB-19; assay: Growth inhibition of human SNB19 cells incubated for 48 hrs by sulforhodamine B assay; type: functional; conditions: SNB-19, 48 h
# [23] = tested on: SNB-75; assay: Growth inhibition of human SNB75 cells incubated for 48 hrs by sulforhodamine B assay; type: functional; conditions: SNB-75, 48 h
# [24] = tested on: U-251; assay: Growth inhibition of human U251 cells incubated for 48 hrs by sulforhodamine B assay; type: functional; conditions: U-251, 48 h
# [25] = tested on: LOX IMVI; assay: Growth inhibition of human LOXIMVI cells incubated for 48 hrs by sulforhodamine B assay; type: functional
# [26] = tested on: Malme-3M; assay: Growth inhibition of human MALME-3M cells incubated for 48 hrs by sulforhodamine B assay; type: functional
# [27] = tested on: M14; assay: Growth inhibition of human M14 cells incubated for 48 hrs by sulforhodamine B assay; type: functional; conditions: M14, 48 h
# [28] = tested on: MDA-MB-435; assay: Growth inhibition of human MDA-MB-435 cells incubated for 48 hrs by sulforhodamine B assay; type: functional; conditions: MDA-MB-435, 48 h
# [29] = tested on: SK-MEL-2; assay: Growth inhibition of human SK-MEL-2 cells incubated for 48 hrs by sulforhodamine B assay; type: functional; conditions: SK-MEL-2, 48 h
# [30] = tested on: SK-MEL-28; assay: Growth inhibition of human SK-MEL-28 cells incubated for 48 hrs by sulforhodamine B assay; type: functional; conditions: SK-MEL-28, 48 h
# [31] = tested on: SK-MEL-5; assay: Growth inhibition of human SK-MEL-5 cells incubated for 48 hrs by sulforhodamine B assay; type: functional; conditions: SK-MEL-5, 48 h
# [32] = tested on: UACC-257; assay: Growth inhibition of human UACC257 cells incubated for 48 hrs by sulforhodamine B assay; type: functional; conditions: UACC-257, 48 h
# [33] = tested on: UACC-62; assay: Growth inhibition of human UACC62 cells incubated for 48 hrs by sulforhodamine B assay; type: functional; conditions: UACC-62, 48 h
# [34] = tested on: OVCAR-3; assay: Growth inhibition of human OVCAR3 cells incubated for 48 hrs by sulforhodamine B assay; type: functional; conditions: OVCAR-3, 48 h
# [35] = tested on: OVCAR-4; assay: Growth inhibition of human OVCAR4 cells incubated for 48 hrs by sulforhodamine B assay; type: functional; conditions: OVCAR-4, 48 h
# [36] = tested on: OVCAR-5; assay: Growth inhibition of human OVCAR5 cells incubated for 48 hrs by sulforhodamine B assay; type: functional; conditions: OVCAR-5, 48 h
# [37] = tested on: OVCAR-8; assay: Growth inhibition of human OVCAR8 cells incubated for 48 hrs by sulforhodamine B assay; type: functional; conditions: OVCAR-8, 48 h
# [38] = tested on: NCI/ADR-RES; assay: Growth inhibition of human NCI/ADR-RES cells incubated for 48 hrs by sulforhodamine B assay; type: functional
# [39] = tested on: SK-OV-3; assay: Growth inhibition of human SKOV3 cells incubated for 48 hrs by sulforhodamine B assay; type: functional; conditions: SK-OV-3, 48 h
# [40] = tested on: 786-0; assay: Growth inhibition of human 786-O cells incubated for 48 hrs by sulforhodamine B assay; type: functional; conditions: 786-0, 48 h
# [41] = tested on: A498; assay: Growth inhibition of human A498 cells incubated for 48 hrs by sulforhodamine B assay; type: functional; conditions: A498, 48 h
# [42] = tested on: ACHN; assay: Growth inhibition of human ACHN cells incubated for 48 hrs by sulforhodamine B assay; type: functional
# [43] = tested on: CAKI-1; assay: Growth inhibition of human Caki1 cells incubated for 48 hrs by sulforhodamine B assay; type: functional; conditions: CAKI-1, 48 h
# [44] = tested on: RXF 393; assay: Growth inhibition of human RXF393 cells incubated for 48 hrs by sulforhodamine B assay; type: functional; conditions: RXF 393, 48 h
# [45] = tested on: SN12C; assay: Growth inhibition of human SN12C cells incubated for 48 hrs by sulforhodamine B assay; type: functional
# [46] = tested on: TK-10; assay: Growth inhibition of human TK10 cells incubated for 48 hrs by sulforhodamine B assay; type: functional; conditions: TK-10, 48 h
# [47] = tested on: UO-31; assay: Growth inhibition of human UO31 cells incubated for 48 hrs by sulforhodamine B assay; type: functional; conditions: UO-31, 48 h
# [48] = tested on: PC-3; assay: Growth inhibition of human PC3 cells incubated for 48 hrs by sulforhodamine B assay; type: functional; conditions: PC-3, 48 h
# [49] = tested on: DU-145; assay: Growth inhibition of human DU145 cells incubated for 48 hrs by sulforhodamine B assay; type: functional; conditions: DU-145, 48 h
# [50] = tested on: MCF7; assay: Growth inhibition of human MCF7 cells incubated for 48 hrs by sulforhodamine B assay; type: functional; conditions: MCF7, 48 h
# [51] = tested on: MDA-MB-231; assay: Growth inhibition of human MDA-MB-231 cells incubated for 48 hrs by sulforhodamine B assay; type: functional; conditions: MDA-MB-231, 48 h
# [52] = tested on: Hs-578T; assay: Growth inhibition of human Hs 578T cells incubated for 48 hrs by sulforhodamine B assay; type: functional
# [53] = tested on: BT-549; assay: Growth inhibition of human BT549 cells incubated for 48 hrs by sulforhodamine B assay; type: functional; conditions: BT-549, 48 h
# [54] = tested on: T47D; assay: Growth inhibition of human T47D cells incubated for 48 hrs by sulforhodamine B assay; type: functional
# [55] = tested on: MDA-MB-468; assay: Growth inhibition of human MDA-MB-468 cells incubated for 48 hrs by sulforhodamine B assay; type: functional; conditions: MDA-MB-468, 48 h
# [56] = tested on: WI-38; assay: Cytotoxicity against human WI38 cells assessed as reduction in cell viability after 24 hrs by MTT assay; type: cell-based; conditions: WI-38, 24 h
# [57] = tested on: WISH; assay: Cytotoxicity against human WISH cells assessed as reduction in cell viability after 24 hrs by MTT assay; type: cell-based
# [58] = species on record: Homo sapiens; assay: Inhibition of PTK in human MCF7 cells at 1 uM preincubated for 2 hrs followed by poly-Glu-Tyr substrate addition by ELISA relative to control; type: cell-based
# [59] = Growth inhibition of human NCI60 cells at 10 uM after 48 hrs by SRB assay relative to control; values are per cent of control; conditions: NCI60, 48 h
compound,measurement,setting,value
CN(C)c1ccc(-c2ccc(-c3ccc(C(=N)N)c(F)c3)s2)cc1,inhibition,[1],56.7%
same,Activity,[2],Dose-dependent effect
COc1ccc(-c2ccc(-c3ccc(C(=N)N)cc3)s2)cc1,GI50,[3],231 nM
same,GI50,[4],282 nM
same,GI50,[5],226 nM
same,GI50,[6],750 nM
same,GI50,[7],2140 nM
same,GI50,[8],665 nM
same,GI50,[9],1240 nM
same,GI50,[10],204 nM
same,GI50,[11],251 nM
same,GI50,[12],224 nM
same,GI50,[13],1330 nM
same,GI50,[14],186 nM
same,GI50,[15],183 nM
same,GI50,[16],196 nM
same,GI50,[17],339 nM
same,GI50,[18],211 nM
same,GI50,[19],1740 nM
same,GI50,[20],1270 nM
same,GI50,[21],160 nM
same,GI50,[22],811 nM
same,GI50,[23],1710 nM
same,GI50,[24],232 nM
same,GI50,[25],198 nM
same,GI50,[26],2170 nM
same,GI50,[27],1410 nM
same,GI50,[28],924 nM
same,GI50,[29],2300 nM
same,GI50,[30],1550 nM
same,GI50,[31],1390 nM
same,GI50,[32],2070 nM
same,GI50,[33],1410 nM
same,GI50,[34],1730 nM
same,GI50,[35],1580 nM
same,GI50,[36],180 nM
same,GI50,[37],321 nM
same,GI50,[38],1490 nM
same,GI50,[39],1960 nM
same,GI50,[40],184 nM
same,GI50,[41],1740 nM
same,GI50,[42],359 nM
same,GI50,[43],1500 nM
same,GI50,[44],1000 nM
same,GI50,[45],189 nM
same,GI50,[46],1970 nM
same,GI50,[47],1670 nM
same,GI50,[48],773 nM
same,GI50,[49],201 nM
same,GI50,[50],175 nM
same,GI50,[51],267 nM
same,GI50,[52],2140 nM
same,GI50,[53],1650 nM
same,GI50,[54],300 nM
same,GI50,[55],192 nM
same,IC50,[56],192000 nM
same,IC50,[57],180000 nM
same,inhibition,[1],59.2%
same,Activity,[2],Dose-dependent effect
same,inhibition,[58],19 to 36%
same,growth percent at 10 µM,[59],-70.7%
"N=C(N)c1ccc(-c2ccc(-c3cccs3)s2)cc1 [4-(2,2'-BITHIOPHENE-5-YL)BENZAMIDINE]",growth percent at 10 µM,[59],83.9%
N#Cc1ccc(-c2ccc(-c3ccccc3)s2)cc1F,inhibition,[1],37.9%
O=c1[nH]cc(F)c(=O)[nH]1 [FLUOROURACIL],IC50,[56],9300 nM
same,IC50,[57],7100 nM
